Test results published in ChEMBL document CHEMBL1201862, “PubChem BioAssay data set” (2004).
Calls of active or inactive are those of the source.

Experiments:
[1] = reduction of Shn3 3'UTR-driven luciferase in osteoblasts – cell-based, Clone20 osteoblasts, firefly luciferase, cherry-picked, dose response (AID 624132); type: functional;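 further: firefly luciferase luminescence from reporter carrying the Shn3 3'UTR in osteoblasts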
[2] = non-specific 3'UTR reporter inhibition in Clone20-Shn3RL – cell-based, Renilla luciferase, cherry-picked, counter-screen for Shn3 inhibitor project, dose response (AID 624133); type: functional
[3] = Shn3 3'UTR reporter signal decrease – cell-based, Clone20 osteoblasts, firefly luciferase, cherry-pick, set 2, Schnurri-3 inhibitor project, dose response (AID 720490); type: functional;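 further: actives lower the luminescence signal as inhibitors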
Kallikrein-7 = Kallikrein-7 (Homo sapiens, UniProt P49862); assay: Fluorescence Intensity-based biochemical primary high throughput dose response assay to identify activators of kallikrein-7 (K7) zymogen.
Kallikrein-7, sequence (P49862 whole entry): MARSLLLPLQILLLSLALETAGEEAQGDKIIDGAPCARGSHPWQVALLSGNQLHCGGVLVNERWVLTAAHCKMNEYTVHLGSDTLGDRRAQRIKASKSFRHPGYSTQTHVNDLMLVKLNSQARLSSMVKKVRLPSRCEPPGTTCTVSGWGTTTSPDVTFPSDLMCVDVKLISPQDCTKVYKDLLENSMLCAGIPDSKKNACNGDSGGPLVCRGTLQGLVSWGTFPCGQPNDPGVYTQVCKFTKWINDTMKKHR

[4] = optical artefact potency, substrate without enzyme – biochemical, fluorescence intensity, triplicate, artefact control for kallikrein-7 zymogen activator project, dose response (AID 720493)
[5] = viability loss in HepG2 hepatoma cells – cell-based, ATP luminescence, cherry-pick, activator set 2, cytotoxicity control, dose response (AID 1053143); type: functional
Nonstructural protein 1 = Nonstructural protein 1 (Influenza A virus, UniProt Q194T2); type: functional, Influenza A virus (A/California/07/2009(H1N1))
Nonstructural protein 1, sequence (Q194T2 whole entry): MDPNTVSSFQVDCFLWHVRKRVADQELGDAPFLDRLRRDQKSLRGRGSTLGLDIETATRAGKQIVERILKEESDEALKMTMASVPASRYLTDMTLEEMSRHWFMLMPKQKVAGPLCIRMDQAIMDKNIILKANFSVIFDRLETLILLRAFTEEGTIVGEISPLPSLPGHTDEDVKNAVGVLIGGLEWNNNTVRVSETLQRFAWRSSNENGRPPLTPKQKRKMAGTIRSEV

[6] = biological target: T1, Apoptotic protease-activating factor 1 (Homo sapiens, UniProt O14727); type: functional
T1 sequence (O14727 whole entry): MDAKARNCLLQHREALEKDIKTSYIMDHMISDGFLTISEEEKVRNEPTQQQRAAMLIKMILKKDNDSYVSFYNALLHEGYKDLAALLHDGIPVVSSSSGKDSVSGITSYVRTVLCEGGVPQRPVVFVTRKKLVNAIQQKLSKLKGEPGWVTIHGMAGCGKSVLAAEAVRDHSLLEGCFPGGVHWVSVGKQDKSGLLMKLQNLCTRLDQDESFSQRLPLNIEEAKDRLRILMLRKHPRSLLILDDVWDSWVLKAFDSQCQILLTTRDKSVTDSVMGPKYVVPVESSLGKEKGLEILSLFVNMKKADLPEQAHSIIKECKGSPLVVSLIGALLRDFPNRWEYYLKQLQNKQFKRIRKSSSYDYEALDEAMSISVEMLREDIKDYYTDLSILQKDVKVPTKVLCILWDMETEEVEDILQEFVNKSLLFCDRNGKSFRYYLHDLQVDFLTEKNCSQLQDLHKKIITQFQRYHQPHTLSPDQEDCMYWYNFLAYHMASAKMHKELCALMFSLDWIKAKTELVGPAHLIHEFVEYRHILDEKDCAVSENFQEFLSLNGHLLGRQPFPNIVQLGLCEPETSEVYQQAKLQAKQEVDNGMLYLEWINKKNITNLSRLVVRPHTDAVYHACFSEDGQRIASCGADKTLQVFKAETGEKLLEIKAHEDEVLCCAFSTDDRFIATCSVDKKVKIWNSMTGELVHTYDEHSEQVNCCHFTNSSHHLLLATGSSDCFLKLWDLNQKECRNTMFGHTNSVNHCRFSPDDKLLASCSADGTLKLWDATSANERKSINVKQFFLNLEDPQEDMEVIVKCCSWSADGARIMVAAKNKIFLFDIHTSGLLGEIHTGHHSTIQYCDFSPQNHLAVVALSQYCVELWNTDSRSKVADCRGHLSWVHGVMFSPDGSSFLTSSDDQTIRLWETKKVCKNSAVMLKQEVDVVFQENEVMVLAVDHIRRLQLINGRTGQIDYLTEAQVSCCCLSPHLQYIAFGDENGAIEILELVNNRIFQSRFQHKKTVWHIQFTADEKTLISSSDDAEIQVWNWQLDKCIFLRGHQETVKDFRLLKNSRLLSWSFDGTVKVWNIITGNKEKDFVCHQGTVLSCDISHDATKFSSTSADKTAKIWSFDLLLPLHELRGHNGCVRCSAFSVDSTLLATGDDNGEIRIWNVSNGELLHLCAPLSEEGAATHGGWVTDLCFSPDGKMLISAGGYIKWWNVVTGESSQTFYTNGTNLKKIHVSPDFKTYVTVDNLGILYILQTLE

[7] = biological target: T2, DNA repair protein RAD52 homolog (Homo sapiens, UniProt P43351); type: functional, biochemical
T2 sequence (P43351 whole entry): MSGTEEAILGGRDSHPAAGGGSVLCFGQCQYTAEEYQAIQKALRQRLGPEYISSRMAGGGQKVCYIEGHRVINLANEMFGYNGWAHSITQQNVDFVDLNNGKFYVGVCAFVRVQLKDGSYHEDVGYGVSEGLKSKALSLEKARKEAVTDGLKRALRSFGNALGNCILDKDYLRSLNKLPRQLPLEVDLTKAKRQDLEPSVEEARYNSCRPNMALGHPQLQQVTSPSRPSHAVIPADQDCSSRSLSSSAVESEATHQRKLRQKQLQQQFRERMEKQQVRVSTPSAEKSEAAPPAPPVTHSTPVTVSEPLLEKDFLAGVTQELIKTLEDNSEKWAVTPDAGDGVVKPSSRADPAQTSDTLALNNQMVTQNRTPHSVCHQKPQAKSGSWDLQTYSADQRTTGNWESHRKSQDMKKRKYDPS

A549 = assay: viability loss in A549 cells – cell-based, plate reader, cherry-pick samples, cytotoxicity control, dose response (AID 687028); type: functional; conditions: Homo sapiens
Caspase-6 = biological target: T3, Caspase-6 (Homo sapiens, UniProt P55212); assay: inhibition of CASP6 peptide cleavage – biochemical, VEID-R110 fluorescence, cherry-pick, dose response (AID 720632)
T3 sequence (P55212 whole entry): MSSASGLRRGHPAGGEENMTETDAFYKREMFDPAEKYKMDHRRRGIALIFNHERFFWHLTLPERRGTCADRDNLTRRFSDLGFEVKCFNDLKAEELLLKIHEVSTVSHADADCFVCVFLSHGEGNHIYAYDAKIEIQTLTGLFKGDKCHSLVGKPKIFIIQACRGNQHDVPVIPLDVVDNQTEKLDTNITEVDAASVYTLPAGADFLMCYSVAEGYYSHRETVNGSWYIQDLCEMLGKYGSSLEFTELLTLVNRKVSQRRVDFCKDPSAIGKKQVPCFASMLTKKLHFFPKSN

Caspase-9 = Caspase-9 (Homo sapiens, UniProt P55211); assay: inhibitors of purified CASP9 protease – biochemical, fluorescence, plate reader, cherry-picked samples, selectivity assay for caspase-6 inhibitor project, dose response (AID 743293)
Caspase-9, sequence (P55211 1-315 limits assumed): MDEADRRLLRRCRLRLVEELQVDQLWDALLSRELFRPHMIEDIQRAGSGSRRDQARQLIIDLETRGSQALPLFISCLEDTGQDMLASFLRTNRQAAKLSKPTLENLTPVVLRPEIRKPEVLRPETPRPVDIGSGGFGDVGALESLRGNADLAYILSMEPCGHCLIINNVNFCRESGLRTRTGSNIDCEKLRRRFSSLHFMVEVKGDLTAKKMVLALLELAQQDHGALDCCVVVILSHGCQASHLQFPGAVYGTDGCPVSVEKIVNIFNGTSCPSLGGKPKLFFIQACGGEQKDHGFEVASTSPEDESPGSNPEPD
Caspase-9, sequence (P55211 331-416 limits assumed): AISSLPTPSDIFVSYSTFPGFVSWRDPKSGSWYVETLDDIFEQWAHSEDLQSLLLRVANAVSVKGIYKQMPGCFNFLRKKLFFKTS

[8] = A549 cell cytotoxicity, dose response, cytotoxicity control, plate reader, cherry-pick, antagonist series (AID 743412); type: functional, cell-based
[9] = toxicity toward HepG2 liver cells – cell-based, plate reader, cherry-pick, antagonist series, cytotoxicity control, dose response (AID 743416); type: functional
[10] = blockers of bursicon-stimulated LGR2 cAMP reporter – cell-based, HEK293, CRE-luciferase reporter, cherry pick, set 2, dose response (AID 743343); type: functional;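 further: transfected cells were stimulated with diluted bursicon conditioned medium after compound addition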
Caspase-7 = Caspase-7 (Homo sapiens, UniProt P55210); assay: caspase-7 enzyme inhibition, selectivity check – biochemical, DEVD-R110 fluorescence, cherry-pick, selectivity assay for caspase-6 inhibitor project, dose response (AID 743295); type: functional
Caspase-7, sequence (P55210 24-198 limits assumed): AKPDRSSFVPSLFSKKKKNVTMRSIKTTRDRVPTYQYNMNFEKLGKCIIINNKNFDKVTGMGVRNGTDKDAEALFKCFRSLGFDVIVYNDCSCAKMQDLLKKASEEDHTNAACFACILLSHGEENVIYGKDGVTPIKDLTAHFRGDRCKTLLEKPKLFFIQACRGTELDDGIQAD
Caspase-7, sequence (P55210 207-303 limits assumed): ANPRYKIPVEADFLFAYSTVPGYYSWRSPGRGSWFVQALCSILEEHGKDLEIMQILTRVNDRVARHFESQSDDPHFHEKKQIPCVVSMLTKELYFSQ

[11] = blockade of melanocortin 4 receptor signaling – cell-based, plate reader, cherry pick, counter-screen for LGR2 antagonist project, dose response (AID 743444); type: functional;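 further: transfected HEK 293 cells stimulated with alpha-MSH peptide; potency of inhibitors of the alpha-MSH evoked signal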
Caspase-8 = Caspase-8 (Homo sapiens, UniProt Q14790); assay: inhibitors of purified CASP8 protease – biochemical, Z-IETD-R110 fluorescence, cherry-picked samples, selectivity assay for caspase-6 inhibitor project, dose response (AID 743294)
Caspase-8, sequence (Q14790 217-374 limits assumed): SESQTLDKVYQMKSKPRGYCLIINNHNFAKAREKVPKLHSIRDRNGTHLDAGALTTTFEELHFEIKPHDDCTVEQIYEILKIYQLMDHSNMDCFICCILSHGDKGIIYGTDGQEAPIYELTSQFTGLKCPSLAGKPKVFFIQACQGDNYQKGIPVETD
Caspase-8, sequence (Q14790 385-479 limits assumed): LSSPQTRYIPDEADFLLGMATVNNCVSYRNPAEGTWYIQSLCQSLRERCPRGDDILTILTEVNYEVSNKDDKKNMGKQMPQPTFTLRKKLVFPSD

[12] = biological target: Disintegrin and metalloproteinase domain-containing protein 17 (Homo sapiens, UniProt P78536); assay: exosite inhibitors of ADAM17, dose response, biochemical (AID 743260)
Disintegrin and metalloproteinase domain-containing protein 17, sequence (P78536 whole entry, the tested form may be a part): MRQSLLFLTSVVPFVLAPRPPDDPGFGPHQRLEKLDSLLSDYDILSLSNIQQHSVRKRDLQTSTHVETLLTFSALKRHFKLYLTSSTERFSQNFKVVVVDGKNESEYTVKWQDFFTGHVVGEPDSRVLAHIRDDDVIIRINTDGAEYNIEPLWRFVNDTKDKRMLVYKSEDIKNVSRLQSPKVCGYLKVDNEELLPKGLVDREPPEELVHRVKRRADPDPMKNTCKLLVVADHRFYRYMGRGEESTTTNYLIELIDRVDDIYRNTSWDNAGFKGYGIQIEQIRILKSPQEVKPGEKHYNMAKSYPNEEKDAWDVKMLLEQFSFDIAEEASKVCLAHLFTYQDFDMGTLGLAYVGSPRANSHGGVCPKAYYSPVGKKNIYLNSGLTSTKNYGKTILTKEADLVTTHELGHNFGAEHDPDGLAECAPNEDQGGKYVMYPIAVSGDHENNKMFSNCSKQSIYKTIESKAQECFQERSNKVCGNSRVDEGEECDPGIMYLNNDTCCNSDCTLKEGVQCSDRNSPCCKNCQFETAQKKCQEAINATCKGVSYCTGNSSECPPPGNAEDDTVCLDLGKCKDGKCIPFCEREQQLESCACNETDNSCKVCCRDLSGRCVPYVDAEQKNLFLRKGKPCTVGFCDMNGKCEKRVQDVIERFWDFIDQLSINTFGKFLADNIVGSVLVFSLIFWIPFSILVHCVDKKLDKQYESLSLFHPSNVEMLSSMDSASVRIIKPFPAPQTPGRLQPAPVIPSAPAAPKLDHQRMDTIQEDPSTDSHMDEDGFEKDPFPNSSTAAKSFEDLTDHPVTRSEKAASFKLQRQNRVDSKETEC

[13] = inhibition of ADAM10 peptide cleavage – biochemical, FRET peptide substrate, recombinant human ADAM10, selectivity assay for ADAM17 exosite inhibitor project, dose response (AID 743259);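 further: ADAM10 enzyme cleaving a FRET peptide substrate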

## CCCCN1C=C(C(=O)OC)C(c2ccccc2Cl)C(C(=O)OC)=C1
cells
  AC50: 2.12 µM (active)

## Cc1onc(-c2ccccc2Cl)c1C(=O)N(C)C1CCCCC1
[1]
  AC50: 2.74 µM (active)
[2]
  AC50: 11.2 µM (active)
[3]
  AC50: 3.59 µM (active)

## CCC1CCCCN1Cc1c(O)ccc2c(=O)c(-c3ccccc3)coc12 (stereo unspecified)
Kallikrein-7
  EC50: > 69.5 µM (inactive)
[4]
  EC50: > 7.72 µM (active)

## O=C(/C=C/c1ccco1)Nc1cccnc1Cl
[5]
  AC50: > 52 µM (inactive)

## CN(C)CCCNc1cc(O)c2ncccc2c1
Nonstructural protein 1
  IC50: 4.57 µM (active)
[6]
  IC50: 15.8 µM (active)
[7]
  AC50: 1.15 µM (active)
A549
  AC50: 20.2 µM (active)
Caspase-6
  AC50: 3.64 µM (active)
Caspase-9
  AC50: > 70 µM (inactive)
[8]
  AC50: 8.67 µM (active)
[9]
  AC50: 7.93 µM (active)
[10]
  AC50: 32 µM (active)
Caspase-7
  AC50: 7.56 µM (active)
[11]
  AC50: 25.3 µM (active)
Caspase-8
  AC50: 42 µM (active)

## COc1ccccc1CNS(=O)(=O)c1cc(-c2cc(C)no2)ccc1C(C)C
[12]
  IC50: > 69.5 µM (inactive)
[13]
  IC50: > 69.5 µM (inactive)
